Measured values from patent publication US20250049798A1, “WEE1 PROTEIN KINASE DEGRADATION AGENT AND USE THEREOF” (HANGZHOU GLUBIO PHARMACEUTICAL CO. LTD., priority 2021, published 2025).

What follows are compounds tested on NCI-H1048 cells (assay: NCI-H1048 cell proliferation assay (CTG assay)). Settings: Homo sapiens, 120 hours, read-out: CTG cellular assay_H1048: IC50.
Format: cell-based
Description: NCI-H1048 Cell Proliferation Assay (CTG Assay) The following is an example of an assay that can be used to determine the anti-proliferative activity of Wee1 PROTACs in a small cell lung cancer cell line, NCI-H1048 (ATCC Cat #CRL-5853). This cell line was cultured in RPMI-1640 medium supplemented with 10% FBS. About 1,200 NCI-H1048 cells in 50 μL of culture medium were seeded into a 384-well plate (Cat #3764, Corning), pre-spotted with compounds using the Echo 650 liquid handler (Beckman). The dose-response-curve (DRC) typically has 10-points with a highest concentration at 10 μM, and half-log diluted to as low as 0.316 nM, plus a DMSO control. Assay plates were incubated at 37° C. with 5% CO2 for 120 hours. After that, 20 μL of the CellTiter-Glo (CTG) Luminescent Cell Viability Assay Reagent (Cat #G7573, Promega) was added to each well and incubated at room temperature for 30 minutes. Luminescence was then measured with Pherastar microplate reader (BMG Labtech). All percentage of cell growth inhibition curves were processed using Collaborative Drug Discovery Vault.
Cell viability reads in compound-treated wells were normalized to that of DMSO control and expressed as Percent of Control (PoC, y). A four Parameter Logistic Model was used to determine the compound's EC50 and DC50, using the following equation: […]

Row | IC50 | Compound
1 | > 100 nM | Cc1cc(Nc2ncc3c(n2)N(C)CN(c2c(Cl)cccc2Cl)C3=O)ccc1C1CCN(CC2CN(c3ccc4c(c3)C(=O)N(C3CCC(=O)NC3=O)C4=O)C2)CC1 (stereo not drawn) [Compound 18]
2 | ≤ 25 nM | C=CCn1c(=O)c2cnc(Nc3ccc(N4CCN(C5CC6(C5)CN(c5ccc(NC7CCC(=O)NC7=O)cc5F)C6)CC4)cc3)nc2n1-c1ccc2c(n1)[C@@](O)(CC)CC2 (stereo partly drawn) [Compound 168]
3 | ≤ 25 nM | C=CCn1c(=O)c2cnc(Nc3ccc(N4CCN(CC5CCN(c6ncc(NC7CCC(=O)NC7=O)cc6Cl)CC5)CC4)cc3)nc2n1-c1ccc2c(n1)[C@@](O)(CC)CC2 (stereo partly drawn) [Compound 181]
4 | ≤ 25 nM | C=CCn1c(=O)c2cnc(Nc3ccc(N4CCN(C5CC6(C5)CN(c5ncc(NC7CCC(=O)NC7=O)cc5F)C6)CC4)cc3)nc2n1-c1ccc2c(n1)[C@@](O)(CC)CC2 (stereo partly drawn) [Compound 185]
5 | ≤ 25 nM | C=CCn1c(=O)c2cnc(Nc3ccc(N4CCC(CN5CCC(c6ccc7c(C8CCC(=O)NC8=O)nn(C)c7c6)CC5)CC4)cc3)nc2n1-c1cccc(C(C)(C)O)n1 (stereo not drawn) [Compound 96]
6 | ≤ 25 nM | C=CCn1c(=O)c2cnc(Nc3ccc(N4CCN(CC5CCN(c6ccc(NC7CCC(=O)NC7=O)cc6F)CC5)CC4)cc3)nc2n1-c1ccc(=O)n(C(C)C)n1 (stereo not drawn) [Compound 158]
7 | ≤ 25 nM | C=CCn1c(=O)c2cnc(Nc3ccc(N4CCN(CC5CCN(c6ccc7c(N8CCC(=O)NC8=O)nn(C)c7c6)CC5)CC4)c(C)c3)nc2n1-c1ccc2c(n1)[C@@](O)(CC)CC2 [Compound 129]

These compounds were tested against HiBiT tagged Wee1 (Homo sapiens, UniProt P30291) (assay: Wee1 protein degradation assay (HiBiT assay)). Settings: engineered HT-1080 cells, 20 hours.
Format: cell-based

Chain of HiBiT tagged Wee1 (P30291 whole entry): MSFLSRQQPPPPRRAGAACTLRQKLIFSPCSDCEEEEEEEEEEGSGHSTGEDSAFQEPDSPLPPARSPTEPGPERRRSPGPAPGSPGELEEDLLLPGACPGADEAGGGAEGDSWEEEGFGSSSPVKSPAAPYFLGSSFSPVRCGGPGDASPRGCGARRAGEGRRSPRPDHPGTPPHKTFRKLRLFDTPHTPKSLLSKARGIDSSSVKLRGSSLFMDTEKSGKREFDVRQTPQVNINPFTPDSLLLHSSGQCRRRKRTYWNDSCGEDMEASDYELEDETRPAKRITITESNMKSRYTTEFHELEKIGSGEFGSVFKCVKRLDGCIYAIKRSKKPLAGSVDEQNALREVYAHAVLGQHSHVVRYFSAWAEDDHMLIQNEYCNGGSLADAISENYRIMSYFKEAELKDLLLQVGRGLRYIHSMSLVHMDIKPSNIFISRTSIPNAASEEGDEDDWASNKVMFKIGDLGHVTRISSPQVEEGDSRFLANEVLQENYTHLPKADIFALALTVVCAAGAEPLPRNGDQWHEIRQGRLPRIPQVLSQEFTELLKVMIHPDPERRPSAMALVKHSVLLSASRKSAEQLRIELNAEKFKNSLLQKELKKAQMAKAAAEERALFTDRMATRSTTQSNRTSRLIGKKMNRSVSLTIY

Row | DC50 | Compound
8 | > 1000 nM | Cc1cc(Nc2ncc3c(n2)N(C)CN(c2c(Cl)cccc2Cl)C3=O)ccc1C1CCN(CC2CN(c3ccc4c(c3)C(=O)N(C3CCC(=O)NC3=O)C4=O)C2)CC1 (stereo not drawn) [Compound 18]
9 | < 100 nM | C=CCn1c(=O)c2cnc(Nc3ccc(N4CCN(C5CC6(C5)CN(c5ccc(NC7CCC(=O)NC7=O)cc5F)C6)CC4)cc3)nc2n1-c1ccc2c(n1)[C@@](O)(CC)CC2 (stereo partly drawn) [Compound 168]
10 | < 100 nM | C=CCn1c(=O)c2cnc(Nc3ccc(N4CCN(CC5CCN(c6ncc(NC7CCC(=O)NC7=O)cc6Cl)CC5)CC4)cc3)nc2n1-c1ccc2c(n1)[C@@](O)(CC)CC2 (stereo partly drawn) [Compound 181]
11 | < 100 nM | C=CCn1c(=O)c2cnc(Nc3ccc(N4CCN(C5CC6(C5)CN(c5ncc(NC7CCC(=O)NC7=O)cc5F)C6)CC4)cc3)nc2n1-c1ccc2c(n1)[C@@](O)(CC)CC2 (stereo partly drawn) [Compound 185]
12 | < 100 nM | C=CCn1c(=O)c2cnc(Nc3ccc(N4CCC(CN5CCC(c6ccc7c(C8CCC(=O)NC8=O)nn(C)c7c6)CC5)CC4)cc3)nc2n1-c1cccc(C(C)(C)O)n1 (stereo not drawn) [Compound 96]
13 | < 100 nM | C=CCn1c(=O)c2cnc(Nc3ccc(N4CCN(CC5CCN(c6ccc(NC7CCC(=O)NC7=O)cc6F)CC5)CC4)cc3)nc2n1-c1ccc(=O)n(C(C)C)n1 (stereo not drawn) [Compound 158]
14 | < 100 nM | C=CCn1c(=O)c2cnc(Nc3ccc(N4CCN(CC5CCN(c6ccc7c(N8CCC(=O)NC8=O)nn(C)c7c6)CC5)CC4)c(C)c3)nc2n1-c1ccc2c(n1)[C@@](O)(CC)CC2 [Compound 129]
15 | > 1000 nM | COc1ccc(C(=O)N2CCC(OC3CCN(Cc4ccc(Nc5ncc6c(=O)n(-c7c(Cl)cccc7Cl)c7nccn7c6n5)cc4)CC3)CC2)cc1N1CCC(=O)NC1=O [Compound 60]
16 | < 100 nM | C=CCn1c(=O)c2cnc(Nc3ccc(N4CCN(CC5CCN(c6ccc(NC7CCC(=O)NC7=O)cc6Cl)CC5)CC4)cc3)nc2n1-c1cccc(C(C)(C)O)n1 (stereo not drawn) [Compound 88]
17 | > 1000 nM | Cc1cc(Nc2ncc3c(n2)N(C)CN(c2c(Cl)cccc2Cl)C3=O)ccc1N1CCC(CN2CCN(c3ccc4c(c3)CN(C3CCC(=O)NC3=O)C4=O)CC2)CC1 (stereo not drawn) [Compound 34]
18 | < 100 nM | C=CCn1c(=O)c2cnc(Nc3ccc(N4CCN(CC5CCN(c6ncc(NC7CCC(=O)NC7=O)cc6F)CC5)CC4)nc3)nc2n1-c1ccc2c(n1)[C@@](O)(CC)CC2 (stereo partly drawn) [Compound 195]
19 | < 100 nM | O=C1CCC(Nc2ccc(N3CCC(CN4CCN(c5ccc(Nc6ncc7c(=O)n(-c8c(Cl)cccc8Cl)c8nccn8c7n6)cc5)CC4)CC3)c(F)c2)C(=O)N1 (stereo not drawn) [Compound 83]
20 | < 100 nM | C=CCn1c(=O)c2cnc(Nc3ccc(C4CCN(C5CCN(c6cccc7c6n(C)c(=O)n7C6CCC(=O)NC6=O)CC5)CC4)cc3)nc2n1-c1cccc(C(C)(C)O)n1 (stereo not drawn) [Compound 99]
21 | < 100 nM | C=CCn1c(=O)c2cnc(Nc3ccc(N4CCN(CC5CCN(c6ccc(NC7CCC(=O)NC7=O)cc6F)CC5)CC4)cc3)nc2n1-c1cccc(OC)n1 (stereo not drawn) [Compound 205]
22 | < 100 nM | C=CCn1c(=O)c2cnc(Nc3ccc(N4CCN(C5CCN(c6ccc7c(c6)C(=O)N(C6CCC(=O)NC6=O)C7=O)CC5)CC4)cc3)nc2n1-c1cccc(C(C)(C)O)n1 (stereo not drawn) [Compound 40]
23 | < 100 nM | C=CCn1c(=O)c2cnc(Nc3ccc(N4CCN(C5CCN(c6ccc(NC7CCC(=O)NC7=O)cc6F)CC5)[C@H](C)C4)cc3)nc2n1-c1ccc2c(n1)[C@@](O)(CC)CC2 (stereo partly drawn) [Compound 186]
24 | < 100 nM | C=CCn1c(=O)c2cnc(Nc3ccc(C4CCN(CC5CCN(c6ccc(NC7CCC(=O)NC7=O)cc6F)CC5)CC4)cc3)nc2n1-c1cccc(C(C)(C)O)n1 (stereo not drawn) [Compound 73]
25 | < 100 nM | C=CCn1c(=O)c2cnc(Nc3ccc(N4CCN(C[C@@H]5CCN(c6ccc7c(c6)C(=O)N(C6CCC(=O)NC6=O)C7=O)C5)CC4)cc3)nc2n1-c1cccc(C(C)(C)O)n1 (stereo partly drawn) [Compound 38]
26 | < 100 nM | C=CCn1c(=O)c2cnc(Nc3ccc(N4CCN(C5CCN(c6ccc(NC7CCC(=O)NC7=O)cc6F)CC5)CC4)cc3)nc2n1-c1ccc2c(n1)[C@@](O)(CC)CC2 (stereo partly drawn) [Compound 155]

Same assay, conditions: engineered HT-1080 cells, 20 hours; maximum percentage of Wee1 degradation; read-out: HiBiT Wee1: Dmax

Row | Dmax | Compound
27 | < 50% | Cc1cc(Nc2ncc3c(n2)N(C)CN(c2c(Cl)cccc2Cl)C3=O)ccc1C1CCN(CC2CN(c3ccc4c(c3)C(=O)N(C3CCC(=O)NC3=O)C4=O)C2)CC1 (stereo not drawn) [Compound 18]
28 | > 75% | C=CCn1c(=O)c2cnc(Nc3ccc(N4CCN(C5CC6(C5)CN(c5ccc(NC7CCC(=O)NC7=O)cc5F)C6)CC4)cc3)nc2n1-c1ccc2c(n1)[C@@](O)(CC)CC2 (stereo partly drawn) [Compound 168]
29 | > 75% | C=CCn1c(=O)c2cnc(Nc3ccc(N4CCN(CC5CCN(c6ncc(NC7CCC(=O)NC7=O)cc6Cl)CC5)CC4)cc3)nc2n1-c1ccc2c(n1)[C@@](O)(CC)CC2 (stereo partly drawn) [Compound 181]
30 | > 75% | C=CCn1c(=O)c2cnc(Nc3ccc(N4CCN(C5CC6(C5)CN(c5ncc(NC7CCC(=O)NC7=O)cc5F)C6)CC4)cc3)nc2n1-c1ccc2c(n1)[C@@](O)(CC)CC2 (stereo partly drawn) [Compound 185]
31 | 50 to 75% | C=CCn1c(=O)c2cnc(Nc3ccc(N4CCC(CN5CCC(c6ccc7c(C8CCC(=O)NC8=O)nn(C)c7c6)CC5)CC4)cc3)nc2n1-c1cccc(C(C)(C)O)n1 (stereo not drawn) [Compound 96]
32 | > 75% | C=CCn1c(=O)c2cnc(Nc3ccc(N4CCN(CC5CCN(c6ccc(NC7CCC(=O)NC7=O)cc6F)CC5)CC4)cc3)nc2n1-c1ccc(=O)n(C(C)C)n1 (stereo not drawn) [Compound 158]
33 | 50 to 75% | C=CCn1c(=O)c2cnc(Nc3ccc(N4CCN(CC5CCN(c6ccc7c(N8CCC(=O)NC8=O)nn(C)c7c6)CC5)CC4)c(C)c3)nc2n1-c1ccc2c(n1)[C@@](O)(CC)CC2 [Compound 129]
34 | < 50% | COc1ccc(C(=O)N2CCC(OC3CCN(Cc4ccc(Nc5ncc6c(=O)n(-c7c(Cl)cccc7Cl)c7nccn7c6n5)cc4)CC3)CC2)cc1N1CCC(=O)NC1=O [Compound 60]
35 | > 75% | C=CCn1c(=O)c2cnc(Nc3ccc(N4CCN(CC5CCN(c6ccc(NC7CCC(=O)NC7=O)cc6Cl)CC5)CC4)cc3)nc2n1-c1cccc(C(C)(C)O)n1 (stereo not drawn) [Compound 88]
36 | < 50% | Cc1cc(Nc2ncc3c(n2)N(C)CN(c2c(Cl)cccc2Cl)C3=O)ccc1N1CCC(CN2CCN(c3ccc4c(c3)CN(C3CCC(=O)NC3=O)C4=O)CC2)CC1 (stereo not drawn) [Compound 34]
37 | > 75% | C=CCn1c(=O)c2cnc(Nc3ccc(N4CCN(CC5CCN(c6ncc(NC7CCC(=O)NC7=O)cc6F)CC5)CC4)nc3)nc2n1-c1ccc2c(n1)[C@@](O)(CC)CC2 (stereo partly drawn) [Compound 195]
38 | > 75% | O=C1CCC(Nc2ccc(N3CCC(CN4CCN(c5ccc(Nc6ncc7c(=O)n(-c8c(Cl)cccc8Cl)c8nccn8c7n6)cc5)CC4)CC3)c(F)c2)C(=O)N1 (stereo not drawn) [Compound 83]
39 | 50 to 75% | C=CCn1c(=O)c2cnc(Nc3ccc(C4CCN(C5CCN(c6cccc7c6n(C)c(=O)n7C6CCC(=O)NC6=O)CC5)CC4)cc3)nc2n1-c1cccc(C(C)(C)O)n1 (stereo not drawn) [Compound 99]
40 | > 75% | C=CCn1c(=O)c2cnc(Nc3ccc(N4CCN(CC5CCN(c6ccc(NC7CCC(=O)NC7=O)cc6F)CC5)CC4)cc3)nc2n1-c1cccc(OC)n1 (stereo not drawn) [Compound 205]
41 | 50 to 75% | C=CCn1c(=O)c2cnc(Nc3ccc(N4CCN(C5CCN(c6ccc7c(c6)C(=O)N(C6CCC(=O)NC6=O)C7=O)CC5)CC4)cc3)nc2n1-c1cccc(C(C)(C)O)n1 (stereo not drawn) [Compound 40]
42 | > 75% | C=CCn1c(=O)c2cnc(Nc3ccc(N4CCN(C5CCN(c6ccc(NC7CCC(=O)NC7=O)cc6F)CC5)[C@H](C)C4)cc3)nc2n1-c1ccc2c(n1)[C@@](O)(CC)CC2 (stereo partly drawn) [Compound 186]
43 | > 75% | C=CCn1c(=O)c2cnc(Nc3ccc(C4CCN(CC5CCN(c6ccc(NC7CCC(=O)NC7=O)cc6F)CC5)CC4)cc3)nc2n1-c1cccc(C(C)(C)O)n1 (stereo not drawn) [Compound 73]
44 | 50 to 75% | C=CCn1c(=O)c2cnc(Nc3ccc(N4CCN(C[C@@H]5CCN(c6ccc7c(c6)C(=O)N(C6CCC(=O)NC6=O)C7=O)C5)CC4)cc3)nc2n1-c1cccc(C(C)(C)O)n1 (stereo partly drawn) [Compound 38]
45 | > 75% | C=CCn1c(=O)c2cnc(Nc3ccc(N4CCN(C5CCN(c6ccc(NC7CCC(=O)NC7=O)cc6F)CC5)CC4)cc3)nc2n1-c1ccc2c(n1)[C@@](O)(CC)CC2 (stereo partly drawn) [Compound 155]
